Data from US6451801B1, “Compounds and methods for treatment of asthma, allergy and inflammatory disorders” (UCB, S.A., priority 1999, dated 2002).

Key:
[1] = system: histamine-induced bronchoconstriction; assay: Antihistaminergic activity in vivo (histamine-induced bronchoconstriction); conditions: Cavia porcellus, guinea pig, oral
Method: Male, Hartley guinea pigs are obtained from Charles River Labs at a body weight of 350 -400 grams. Inhibition of histamine activity is measured by the method of Konzett and Rössler (Naonyn-Schmiedebergs Arch. Exp. Path. Pharmakol. 195, 71-74 (1940). Anaethetized guinea pigs are subjected to artificial ventilation. The endotracheal pressure is recorded. Bronchoconstriction is induced by successive intravenous injections of histamine. The test compounds are administered orally in a 1% methocellulose suspension at set timepoints prior to the administration of histamine.
The results (Table 2) show the percent inhibition of histamine-induced bronchoconstriction by selected compounds at multiple time points post oral dosing. 50% inhibition or greater is considered significant.

15-lipoxygenase = biological target: T1, 15-lipoxygenase (Oryctolagus cuniculus, UniProt P12530); assay: Inhibition of 15-lipoxygenase (15-HETE production); type: biochemical; conditions: 15-lipoxygenase from rabbit peritoneal polymorphonuclear leukocytes, 5 min at 37° C.
T1 construct: from tissue; host or cells: rabbit peritoneal polymorphonuclear leukocytes
T1 sequence (P12530 1-663): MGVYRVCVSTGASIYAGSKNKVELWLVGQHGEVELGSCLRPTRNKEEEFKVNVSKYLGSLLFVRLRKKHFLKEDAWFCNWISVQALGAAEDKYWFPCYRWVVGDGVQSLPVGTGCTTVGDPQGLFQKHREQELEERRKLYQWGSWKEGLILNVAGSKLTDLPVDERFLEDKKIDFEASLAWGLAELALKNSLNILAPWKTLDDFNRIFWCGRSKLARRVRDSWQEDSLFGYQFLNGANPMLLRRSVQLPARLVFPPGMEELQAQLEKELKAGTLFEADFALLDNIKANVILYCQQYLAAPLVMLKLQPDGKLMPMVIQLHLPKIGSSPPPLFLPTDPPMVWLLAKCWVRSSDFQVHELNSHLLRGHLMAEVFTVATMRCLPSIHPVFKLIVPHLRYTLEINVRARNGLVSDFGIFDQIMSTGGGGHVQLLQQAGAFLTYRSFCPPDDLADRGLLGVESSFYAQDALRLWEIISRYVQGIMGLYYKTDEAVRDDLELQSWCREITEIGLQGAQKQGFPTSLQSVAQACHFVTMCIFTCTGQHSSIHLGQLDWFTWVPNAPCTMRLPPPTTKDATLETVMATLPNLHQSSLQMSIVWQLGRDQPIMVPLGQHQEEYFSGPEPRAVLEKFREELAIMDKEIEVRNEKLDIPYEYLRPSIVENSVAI
Excerpt: This assay examines the ability of a compound to inhibit production of 15-hydroxy-5, 8, 11, 13-eicosatetraenoic acid (15-HETE) via the action of 15-lipoxygenase on arachidonic acid. 15-lipoxygenase was purified from rabbit peritoneal polymorphonuclear leukocytes. The enzyme is responsible for the conversion of arachidonic acid (via oxygenation at carbon 15 of arachidonic acid) to 15-hydroperoxy-5, 8, 11, 13-eicosatetraenoic acid (15-HPETE), which then reduced to 15-hydroxy-5, 8, 11, 13-eicosatetraenoic acid (15-HETE).
The procedure for the assay is as follows. Arachidonic acid is co-incubated with […] for 5 min at 37° C. in the presence or absence of different concentrations of test compound (10^−8 to 10^−5 M). Production of 15-HETE in each sample is then measured by radioimmunoassay. The 15-HETE levels produced in the vehicle control sample are then compared to those in which the test compound has been added.

[2] = biological target: T2, human 5-lipoxygenase enzyme (Homo sapiens, UniProt P09917); assay: Inhibition of LTB4 production in human whole blood; type: cell-based; conditions: human whole blood, calcium ionophore A23187 50 μM, LTB4 by EIA; read-out: HWB IC50
T2 construct: endogenous in cells; host or cells: human whole blood (leukocytes) stimulated with A23187
T2 sequence (P09917 1-674): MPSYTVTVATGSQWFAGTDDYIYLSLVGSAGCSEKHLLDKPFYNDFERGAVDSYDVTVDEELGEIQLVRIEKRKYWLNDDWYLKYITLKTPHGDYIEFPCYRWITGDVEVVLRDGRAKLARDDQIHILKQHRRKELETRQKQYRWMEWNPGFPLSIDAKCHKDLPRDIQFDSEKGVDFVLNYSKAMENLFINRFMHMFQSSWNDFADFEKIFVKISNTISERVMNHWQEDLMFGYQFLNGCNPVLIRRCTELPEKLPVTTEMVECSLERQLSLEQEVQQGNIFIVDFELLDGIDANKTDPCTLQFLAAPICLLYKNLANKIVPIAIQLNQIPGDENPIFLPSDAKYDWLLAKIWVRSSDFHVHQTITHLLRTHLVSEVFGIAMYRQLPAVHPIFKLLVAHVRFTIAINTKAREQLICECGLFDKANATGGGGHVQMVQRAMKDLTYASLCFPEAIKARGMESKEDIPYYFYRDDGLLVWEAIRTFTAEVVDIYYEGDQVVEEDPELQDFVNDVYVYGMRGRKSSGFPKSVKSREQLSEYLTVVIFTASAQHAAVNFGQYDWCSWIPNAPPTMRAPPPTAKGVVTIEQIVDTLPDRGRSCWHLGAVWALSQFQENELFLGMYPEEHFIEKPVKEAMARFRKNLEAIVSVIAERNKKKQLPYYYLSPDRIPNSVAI
Method: This assay examines the ability of a compound to inhibit leukotriene B4 production from human blood stimulated with calcium ionophore. As this production of leukotriene B4 is mediated via the activation of the 5-lipoxygenase enzyme, this assay is predictive of a compound's ability to inhibit the human 5-lipoxygenase enzyme.
The procedure for the assay is as follows. Blood is drawn from normal human volunteers into tubes containing heparin. 1 ml of the heparinized blood is pipetted into a 1.5 ml polypropylene tube. To this sample is added either different concentrations of the test compound (5 μl) dissolved in DMSO or 5 μl of DMSO as a vehicle control. These samples are incubated in a water bath, at 37° C. for 15 min. 5 μl of the calcium ionophore A23187 (at a final concentration of 50 μM) is then added to each sample, which is vortexed and placed back in the water bath for 30 min. The samples are then centrifuged at 2500 rpm for 10 min. at 4° C. 50 μl of the supernatant is transferred into pre-cooled Eppendorf tubes containing 950 μl of enzyme immunoassay (EIA) buffer. A commercially available EIA kit (Cayman Chemical Co., Ann Arbor, Mich., USA) is used to subsequently measure the LTB4 production in the samples. The LTB4 levels produced in the vehicle control sample is then compared to those in which the test compound has been added. From this a percent inhibition of LTB4 production by each concentration of test compound is calculated and the IC50 for inhibition of LTB4 production for each test compound is determined.

5-lipoxygenase = assay: 5-Lipoxygenase inhibitory activity in vivo; conditions: guinea pig, oral, 2 mg/kg
Method: Male, Hartley guinea pigs are obtained from Charles River Labs at a body weight of 350-400 grams. Compounds are prepared at a volume of [1-2 mg/ml] in 1% methocellulose for oral dosing. Animals are separated into groups of five (5). Each assay includes a control group dosed with vehicle. Each group of animals is dosed with either vehicle or compound by oral gavage. Animals are allowed to rest for one, three, or six hours after dosing. Control animals are allowed to rest for three hours. At the appropriate times, the animals are anesthetized with Urethane at 1.5 g/kg, ip. Blood is drawn into a heparinized syringe via cardiac puncture. Blood (0.5 ml) is aliquoted into separately-labeled 1.5 ml eppendorf tubes. Each sample is loaded with 5 μl of [15 mM] Arachidonic Acid, and placed in a 37° C. water bath for five minutes. After five minutes, the blood is stimulated with 5 μl of [5 mM] A23187 (Calcium Ionophore) and retained in the water bath for an additional 30 minutes. After the thirty minutes, the blood samples are removed from the water bath and centrifuged at 14,000 rpm for 2 minutes. Plasma is diluted to EIA buffer and an EIA is performed following manufacturer instructions (Cayman Chemical Co., Ann Arbor, Mich., USA). The results (Table 3) show the percent inhibition of 5-lipoxygenase by selected compounds at multiple time points post oral dosing. 50% inhibition or greater is considered significant.

human cloned H1 receptor = biological target: T3, human cloned H1 receptor (Homo sapiens, UniProt P35367); assay: CHO-K1 H1R binding assay; conditions: 3H-pyrilamine 2 nM, CHO-K1 membranes, 3 hours at 37° C.; read-out: CHOH1 K1
T3 construct: expressed in transfected cells; host or cells: CHO-K1
T3 sequence (P35367 whole entry): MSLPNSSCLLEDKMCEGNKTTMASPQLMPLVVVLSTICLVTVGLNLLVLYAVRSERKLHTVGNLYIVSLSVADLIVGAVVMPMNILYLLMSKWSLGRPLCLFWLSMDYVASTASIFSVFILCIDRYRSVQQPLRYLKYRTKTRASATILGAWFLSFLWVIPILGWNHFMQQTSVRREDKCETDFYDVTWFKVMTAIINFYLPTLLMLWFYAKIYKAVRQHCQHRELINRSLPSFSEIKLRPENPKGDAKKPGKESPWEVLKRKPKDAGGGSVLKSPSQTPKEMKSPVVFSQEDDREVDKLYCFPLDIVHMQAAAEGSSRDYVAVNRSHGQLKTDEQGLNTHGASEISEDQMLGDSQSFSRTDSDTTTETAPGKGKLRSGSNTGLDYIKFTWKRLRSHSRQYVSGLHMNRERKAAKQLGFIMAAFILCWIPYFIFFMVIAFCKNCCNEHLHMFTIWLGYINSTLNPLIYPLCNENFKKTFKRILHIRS
Method: CHO-K1 cells expressing the human cloned H1 receptor are grown to confluence in tissue culture dishes. Cells are harvested using D-PBS buffer (JRH Biosciences), kept at 4° C., centrifuging to pellet cells (4° C., 500 g, 10 min). The final cell pellet is homogenized and resuspended using Tris/sucrose buffer (20 mM Tris, 250 mM sucrose, pH 7.4 at 4° C.). Aliquots of the membrane preparation are stored at −70° C.
On the day of assay, the membrane preparation is thawed and centrifuged (TLA100.3 rotor, 4° C., 15 min, 23,000 rpm). The pellet is resuspended in Tris/sucrose buffer initially and then diluted further as necessary using assay buffer A (50 mM Na/KPO4, 2 mM MgCl2, 0.5% (w/v) BSA, pH 7.5).
For the binding assay, the membrane preparation, test compound and ^3H-pyrilamine (2 nM final) in buffer A with 1% (v/v) DMSO final are incubated in a 96-well polypropylene plate for 3 hours at 37° C. Non-specific binding is determined in the presence of 10 μM pyrilamine. A 96-well harvester (Packard) is used to harvest the 96-well plate onto a GF/B filter plate pre-treated with 0.1% (v/v) PEI. The plate is counted in a Packard Topcounter after adding Microscint 20 (Packard) scintillation fluid. The Ki for each compound at the histamine H1 receptor is then calculated from these counts.

Compound	inhibition in vivo at 2 mg/kg ([1]; 3 hrs)	IC50 (15-lipoxygenase)	IC50 [2]	% inhibition of 5-lipoxygenase (5-lipoxygenase; 3 hours)	% inhibition of 5-lipoxygenase (5-lipoxygenase; 1 hour)	Ki (human cloned H1 receptor)	inhibition in vivo at 5 mg/kg ([1]; 5 mg/kg, 3 hrs)	inhibition in vivo at 2 mg/kg ([1]; 6 hrs)
NC(=O)N(O)CCC#Cc1ccc(OCCCN2CCN([C@H](c3ccccc3)c3ccc(Cl)cc3)CC2)cc1 [Compound 52, N-{4-[4-(3-{4-[(1R)(4-chlorophenyl)phenyl-methyl]piperazinyt}propoxy)phenyl]but-3-ynyl}amino-N-hydroxyamide]	69%	61 nM	105 nM	61%	–	–	–	–
NC(=O)N(O)CCC#Cc1ccc(OCCN2CCC(=C3c4ccc(Cl)cc4CCc4cccnc43)CC2)cc1 [Compound 32]	65%	170 nM	263 nM	–	88%	–	–	–
NC(=O)N(O)Cc1ccc(OCCN2CCN([C@H](c3ccccc3)c3ccc(Cl)cc3)CC2)cc1 [Compound 1, N-{[4-(2-{4-[(1R) (4-chlorophenyl)phenylmethyl]piperazinyl}ethoxy)phenyl]methyl} amino-N-hydroxyamide]	–	1300 nM	1520 nM	–	62%	24 nM	56%	–
NC(=O)c1cc(C#CCCN(O)C(N)=O)ccc1OCCN1CCN([C@H](c2ccccc2)c2ccc(Cl)cc2)CC1 [Compound 35, 2-(2-{4-[(1R) (4-chlorophenyl)phenyl-methyl]piperazinyl}ethoxy)-5-[4-(amino-hydroxycarbonylamino)but-1-ynyl]benzamide]	72%	46 nM	85 nM	97%	87%	135 nM	–	88%
